Measured values: publication PMC12143348, “Rapid and reversible fluorescent probe enables repeated snapshot imaging of AMPA receptors during synaptic plasticity” (Science Advances, 2025)

Legend:
GluA3 (Y454A/R461G) = target: T1, GluA3 (Y454A/R461G) (Mus musculus, UniProt Q9Z2W9, R461G/Y454A); assay: Concentration-dependent binding of PFQX1(AF488), confocal live imaging of HEK293T cells expressing GluA3; conditions: n = 3, read-out: Kd / Affinity of PFQX1(AF488) to GluA3
T1 construct: expressed in transfected cells; host or cells: HEK293T
Description: (§1) HEK293T cells were cotransfected with plasmids for AMPAR [5′UTR-GluA1^flip(R)-3′UTR, GluA2^flip(Q)-3′UTR, GluA3^flip(Q) (Y454A/R461G), and GluA4^flip(Q)], kainate receptor [GluK2(Q)], auxiliary subunits, or the control vector and transfection marker (EFGP-F or mCherry-F). Fluorophore-ligand conjugates were diluted in Hepes-buffered saline (HBS) buffer [20 mM Hepes (pH 7.4), 107 mM NaCl, 6 mM KCl, 1.2 mM MgSO4, 2 mM CaCl2, and 11.5 mM glucose] and added to the cells. Confocal live imaging was performed with LSM900 (Carl Zeiss) equipped with a 63×, numerical aperture (NA) = 1.4 oil-immersion objective. Fluorescence images were acquired by excitation at 405, 488, 561, or 640 nm derived from diode lasers.
(§2) For evaluating the concentration dependency of fluorophore-ligand conjugates, 0.1 nM probe in HBS was added to the dish. Then, probes in HBS were added stepwise to the dish to a final concentration of 0.3, 1, 3, 10, 30, 100, 300, 1000, and 3000 nM. Cell surface fluorescence intensity was quantified from the line scans of transfection marker positive cells and calculated with subtraction of background by ZEN blue software (Carl Zeiss). The membrane intensity was fitted with KaleidaGraph (Synergy software) to calculate the equilibrium constant value using the following equation: a + (b − a)/(1 + (x/c)^d). The equilibrium constant is regarded as the Kd in this study.

GluA2flip(R) = target: T2, GluA2flip(R) (Mus musculus, UniProt P23819, DEL765-802/Q607R); assay: Concentration-dependent binding of PFQX1(AF488) to GluA2flip(R) expressed alone in HEK293T cells; conditions: n = 3–4, read-out: Kd / Affinity of PFQX1(AF488) to GluA2flip(R) expressed alone (–)
T2 construct: expressed in transfected cells; host or cells: HEK293T
Description: as §1
as §2, with “The membrane intensity was fitted with KaleidaGraph (Synergy software) to calculate the equilibrium constant value using the following equation: a + (b − a)/(1 + (x/c)^d). The equilibrium constant is regarded as the Kd in this study.” left out
(A) Concentration-dependent binding of PFQX1(AF488) to GluA2 flip(R) expressed with GSG1L or TARP γ7. […] (B) The surface intensity of PFQX1(AF488) was quantified. […]

GluA2flip(R) + TARP γ7 = target: T3, GluA2flip(R) + TARP γ7 (Mus musculus, UniProt P23819, DEL765-802/Q607R); assay: Concentration-dependent binding of PFQX1(AF488) to GluA2flip(R) expressed with TARP γ7 in HEK293T cells; conditions: n = 3–4, read-out: Kd / Affinity of PFQX1(AF488) to GluA2flip(R) with TARP γ7
T3 construct: expressed in transfected cells; host or cells: HEK293T
Description: HEK293T cells (American Type Culture Collection) were cultured in Dulbecco’s modified Eagle’s medium (DMEM)–GlutaMAX (Invitrogen) supplemented with 10% fetal bovine serum (FBS) (Sigma-Aldrich), penicillin (100 U ml^−1), and streptomycin (100 μg ml^−1) and incubated in a 5% CO2 humidified chamber at 37°C. Cells were transfected with a plasmid using Lipofectamine 3000 (Invitrogen) according to the manufacturer’s instructions. Twenty-four hours after transfection, the cells were seeded on glass-bottom dishes coated with poly-L-lysine solution and incubated for 24 hours except for GluA4, TARP γ7, and GluK2. For GluA4, TARP γ7, and GluK2 expression, the cells were used 24 hours after transfection. […]
HEK293T cells were cotransfected with plasmids for AMPAR [5′UTR-GluA1^flip(R)-3′UTR, GluA2^flip(Q)-3′UTR, GluA3^flip(Q) (Y454A/R461G), and GluA4^flip(Q)], kainate receptor [GluK2(Q)], auxiliary subunits, or the control vector and transfection marker (EFGP-F or mCherry-F). […] Fluorescence images were acquired by excitation at 405, 488, 561, or 640 nm derived from diode lasers.
For evaluating the concentration dependency of fluorophore-ligand conjugates, 0.1 nM probe in HBS was added to the dish. […] Cell surface fluorescence intensity was quantified from the line scans of transfection marker positive cells and calculated with subtraction of background by ZEN blue software (Carl Zeiss). […]

AMPARs = assay: Kinetics and reversibility of PFQX1(AF488) binding in cultured hippocampal neurons; design: species or system mouse; conditions: 100 nM probe
Description: A cloning ring (16 mm φ) was placed on the dish to accelerate the diffusion of the probe solution. After the dish was set on the stage, the cells were treated with 100 nM PFQX1(AF488) and imaged at specified time points by confocal microscopy.
For evaluating reversibility, stained cells were observed by confocal microscopy as the first image. Then, the cells were washed three times with Hepes-based ACSF and scanned as the wash image. After removal of the buffer, 100 nM PFQX1(AF488) was re-treated, and the cells were scanned as the second image. To quantify the fluorescence intensity of spines, the average signal intensity of ROIs set on spines was calculated by ZEN blue software after subtracting background fluorescence.

T1 sequence (Q9Z2W9 23-888 Y454A/R461G): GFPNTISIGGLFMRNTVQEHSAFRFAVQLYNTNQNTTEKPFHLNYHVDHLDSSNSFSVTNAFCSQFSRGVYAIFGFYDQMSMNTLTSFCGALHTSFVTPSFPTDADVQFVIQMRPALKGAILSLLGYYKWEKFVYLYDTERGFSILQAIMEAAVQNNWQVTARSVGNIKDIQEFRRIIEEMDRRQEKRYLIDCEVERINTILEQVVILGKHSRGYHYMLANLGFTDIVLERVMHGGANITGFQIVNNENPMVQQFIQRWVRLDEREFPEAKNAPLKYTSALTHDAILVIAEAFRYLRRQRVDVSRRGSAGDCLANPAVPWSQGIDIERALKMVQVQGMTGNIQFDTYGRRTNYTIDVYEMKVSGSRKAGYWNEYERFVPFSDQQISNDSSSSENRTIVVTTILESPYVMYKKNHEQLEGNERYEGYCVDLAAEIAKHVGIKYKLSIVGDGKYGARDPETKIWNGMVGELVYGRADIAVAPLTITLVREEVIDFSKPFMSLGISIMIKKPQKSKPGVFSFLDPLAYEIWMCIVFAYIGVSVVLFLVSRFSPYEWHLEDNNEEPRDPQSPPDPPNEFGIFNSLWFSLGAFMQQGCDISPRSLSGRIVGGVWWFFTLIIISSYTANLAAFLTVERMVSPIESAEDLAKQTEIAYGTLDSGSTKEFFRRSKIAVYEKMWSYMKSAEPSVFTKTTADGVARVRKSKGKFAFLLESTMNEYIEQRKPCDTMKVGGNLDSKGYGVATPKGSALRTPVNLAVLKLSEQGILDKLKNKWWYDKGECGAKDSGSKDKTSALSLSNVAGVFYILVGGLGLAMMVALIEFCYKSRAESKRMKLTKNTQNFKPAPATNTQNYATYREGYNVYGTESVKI
T3 sequence (P23819 with tags, fused parts or gaps isoform P23819-4 Q607R/DEL765-802): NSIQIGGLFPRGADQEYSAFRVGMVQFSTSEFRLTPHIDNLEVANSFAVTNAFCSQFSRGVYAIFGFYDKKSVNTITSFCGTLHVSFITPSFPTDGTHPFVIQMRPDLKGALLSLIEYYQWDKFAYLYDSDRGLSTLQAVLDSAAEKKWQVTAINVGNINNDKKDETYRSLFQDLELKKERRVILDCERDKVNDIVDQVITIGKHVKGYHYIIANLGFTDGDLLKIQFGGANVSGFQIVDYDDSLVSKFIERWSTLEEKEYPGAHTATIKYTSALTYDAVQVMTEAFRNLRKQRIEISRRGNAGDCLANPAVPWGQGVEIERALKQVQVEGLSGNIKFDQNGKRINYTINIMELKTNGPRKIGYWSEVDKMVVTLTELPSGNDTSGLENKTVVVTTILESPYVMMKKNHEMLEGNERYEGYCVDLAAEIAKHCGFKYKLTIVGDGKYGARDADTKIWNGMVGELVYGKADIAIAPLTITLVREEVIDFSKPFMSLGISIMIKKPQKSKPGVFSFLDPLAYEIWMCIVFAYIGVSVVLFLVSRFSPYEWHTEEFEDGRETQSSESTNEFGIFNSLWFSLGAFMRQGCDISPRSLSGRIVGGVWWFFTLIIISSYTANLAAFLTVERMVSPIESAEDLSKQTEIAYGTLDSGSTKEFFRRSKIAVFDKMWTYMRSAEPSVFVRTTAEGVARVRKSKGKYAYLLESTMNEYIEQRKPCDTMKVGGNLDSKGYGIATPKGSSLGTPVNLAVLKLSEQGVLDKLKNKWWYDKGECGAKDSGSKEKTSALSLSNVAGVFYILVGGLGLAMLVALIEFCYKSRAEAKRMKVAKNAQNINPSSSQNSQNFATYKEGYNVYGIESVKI
T3 sequence (P62956 whole entry partner): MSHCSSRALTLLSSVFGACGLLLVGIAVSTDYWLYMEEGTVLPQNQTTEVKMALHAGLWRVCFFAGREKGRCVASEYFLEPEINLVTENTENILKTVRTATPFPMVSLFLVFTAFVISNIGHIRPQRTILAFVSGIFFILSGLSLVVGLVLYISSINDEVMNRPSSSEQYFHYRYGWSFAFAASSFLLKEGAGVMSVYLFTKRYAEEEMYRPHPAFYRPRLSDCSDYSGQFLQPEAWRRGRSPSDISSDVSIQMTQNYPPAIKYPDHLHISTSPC
T2 sequence (P23819 with tags, fused parts or gaps isoform P23819-4 Q607R/DEL765-802): as the sequence (P23819 with tags, fused parts or gaps isoform P23819-4 Q607R/DEL765-802) above

N=c1ccc2c(-c3ccc(C(=O)NCc4ccn(-c5cc6c(cc5C(F)(F)F)[nH]c(=O)c(=O)n6CC(=O)O)c4)cc3C(=O)O)c3ccc(N)c(S(=O)(=O)O)c3oc-2c1S(=O)(=O)O [PFQX1(AF488)]
Kd (GluA3 (Y454A/R461G)): 30.6 ± 7 nM | Kd (GluA2flip(R)): 32.3 ± 4.7 nM | Kd (GluA2flip(R) + TARP γ7): 118 ± 44.7 nM | reversibility of binding (medium exchange) (AMPARs): easily removed by medium exchange | time to saturation of fluorescent signals after probe addition (AMPARs): 10 s
